This is an account of results in patent publication US9340580B2, “Peptide with multiple epitopes” (priority 2007, dated 2016).

The data set can be described thus: solubility pre-screen in an aqueous, acidic milieu. Note: test concentration or dose not given here. Format: physicochemical.

Structures are written as SMILES. Where a SMILES comes first, the peptide text is derived from it.

Regarding `CC[C@H](C)[C@H](N)C(=O)N[C@@H](CC(=O)O)C(=O)N[C@@H](CC(C)C)C(=O)N[C@@H](CCCNC(=N)N)C(=O)N[C@@H](CCC(N)=O)C(=O)N[C@@H](CCSC)C(=O)N[C@@H](CCCNC(=N)N)C(=O)N[C@H](C(=O)N[C@H](C(=O)N[C@H](C(=O)N1CCC[C@H]1C(=O)N[C@H](C(=O)N[C@@H](CCCNC(=N)N)C(=O)O)[C@@H](C)CC)[C@@H](C)O)C(C)C)[C@@H](C)O` [HDM01] (H-IDLRQMRTVTPIR-OH; N-terminus and C-terminus assumed), the Solubility test entry is reported as “YES”.

Consider `CC[C@H](C)[C@H](NC(=O)[C@@H]1CCCN1C(=O)[C@@H](NC(=O)[C@@H](NC(=O)[C@@H](NC(=O)[C@@H](N)CCCNC(=N)N)[C@@H](C)O)C(C)C)[C@@H](C)O)C(=O)N[C@@H](CCCNC(=N)N)C(=O)N[C@@H](CCSC)C(=O)N[C@@H](CCC(N)=O)C(=O)NCC(=O)NCC(=O)N[C@@H](CS)C(=O)NCC(=O)O` [HDM02] (H-RTVTPIRMQGGCG-OH; N-terminus and C-terminus assumed), for which the Solubility test result was “YES”.

On to `CC(C)C[C@H](NC(=O)[C@H](CC(=O)O)NC(=O)[C@H](CC(C)C)NC(=O)[C@H](CO)NC(=O)[C@H](CCC(N)=O)NC(=O)[C@H](CC(N)=O)NC(=O)[C@@H](N)CCCNC(=N)N)C(=O)N[C@@H](C)C(=O)N[C@@H](CCC(=O)O)C(=O)N[C@@H](CCC(N)=O)C(=O)N[C@@H](CCC(=O)O)C(=O)N[C@@H](CC(C)C)C(=O)N[C@H](C(=O)N[C@@H](CC(=O)O)C(=O)N[C@@H](CS)C(=O)N[C@@H](C)C(=O)N[C@@H](CO)C(=O)N[C@@H](CCC(N)=O)C(=O)N[C@@H](Cc1c[nH]cn1)C(=O)O)C(C)C` [HDM03C] (H-RNQSLDLAEQELVDCASQH-OH; N-terminus and C-terminus assumed), for which the Solubility test result was “YES”.

Turning to `CC[C@H](C)[C@H](NC(=O)[C@H](Cc1ccc(O)cc1)NC(=O)[C@@H](N)CCC(=O)O)C(=O)N[C@@H](CCC(N)=O)C(=O)N[C@@H](Cc1c[nH]cn1)C(=O)N[C@@H](CC(N)=O)C(=O)NCC(=O)N[C@H](C(=O)N[C@H](C(=O)N[C@@H](CCC(N)=O)C(=O)N[C@@H](CCC(=O)O)C(=O)N[C@@H](CO)C(=O)N[C@@H](Cc1ccc(O)cc1)C(=O)O)C(C)C)C(C)C` [HDM05] (H-EYIQHNGVVQESY-OH), the Solubility test result is on record as “YES”.

For `CC(C)[C@H](NC(=O)[C@H](Cc1ccc(O)cc1)NC(=O)[C@@H](N)CCCNC(=N)N)C(=O)N[C@@H](C)C(=O)N[C@@H](CCCNC(=N)N)C(=O)N[C@@H](CCC(=O)O)C(=O)N[C@@H](CCC(N)=O)C(=O)N[C@@H](CO)C(=O)N[C@@H](CS)C(=O)N[C@@H](CCCNC(=N)N)C(=O)N[C@@H](CCCNC(=N)N)C(=O)N1CCC[C@H]1C(=O)N[C@@H](CC(N)=O)C(=O)O` [HDM06] (H-RYVAREQSCRRPN-OH; N-terminus and C-terminus assumed), the Solubility test result is given as “YES”.

On to `CC[C@H](C)[C@H](NC(=O)[C@H](CCCCN)NC(=O)[C@H](CC(N)=O)NC(=O)[C@@H](NC(=O)[C@H](CC(N)=O)NC(=O)[C@@H]1CCCN1)C(C)C)C(=O)N[C@@H](CCCNC(=N)N)C(=O)N[C@@H](CCC(=O)O)C(=O)N[C@@H](C)C(=O)N[C@@H](CC(C)C)C(=O)N[C@@H](C)C(=O)N[C@@H](CCC(N)=O)C(=O)N[C@H](C(=O)O)[C@@H](C)O` [HDM07] (H-PNVNKIREALAQT-OH), for which the Solubility test result is “YES”.

As to `CC[C@H](C)[C@H](NC(=O)[C@H](CCCCN)NC(=O)[C@@H](N)CC(N)=O)C(=O)N[C@@H](CCCNC(=N)N)C(=O)N[C@@H](CCC(=O)O)C(=O)N[C@@H](C)C(=O)N[C@@H](CC(C)C)C(=O)N[C@@H](C)C(=O)N[C@@H](CCC(N)=O)C(=O)N[C@H](C(=O)N[C@@H](Cc1c[nH]cn1)C(=O)N[C@@H](CO)C(=O)N[C@@H](C)C(=O)O)[C@@H](C)O` [HDM08] (H-NKIREALAQTHSA-OH), the Solubility test entry is listed as “YES”.

As for `CC[C@H](C)[C@H](N)C(=O)NCC(=O)N[C@H](C(=O)N[C@@H](CCCCN)C(=O)N[C@@H](CC(=O)O)C(=O)N[C@@H](CC(C)C)C(=O)N[C@@H](CC(=O)O)C(=O)N[C@@H](C)C(=O)N[C@@H](Cc1ccccc1)C(=O)N[C@@H](CCCNC(=N)N)C(=O)N[C@@H](Cc1c[nH]cn1)C(=O)N[C@@H](Cc1ccc(O)cc1)C(=O)N[C@@H](CC(=O)O)C(=O)O)[C@@H](C)CC` [HDM11] (H-IGIKDLDAFRHYD-OH), the Solubility test entry is reported as “YES”.

On to `CC(C)C[C@H](NC(=O)[C@H](CC(=O)O)NC(=O)[C@@H](N)CCCCN)C(=O)N[C@@H](CC(=O)O)C(=O)N[C@@H](C)C(=O)N[C@@H](Cc1ccccc1)C(=O)N[C@@H](CCCNC(=N)N)C(=O)N[C@@H](Cc1c[nH]cn1)C(=O)N[C@@H](Cc1ccc(O)cc1)C(=O)N[C@@H](CC(=O)O)C(=O)NCC(=O)N[C@@H](CCCNC(=N)N)C(=O)N[C@H](C(=O)O)[C@@H](C)O` [HDM12] (H-KDLDAFRHYDGRT-OH), for which the Solubility test result is “YES”.

With `C[C@@H](O)[C@H](NC(=O)[C@H](CC(=O)O)NC(=O)[C@H](Cc1c[nH]c2ccccc12)NC(=O)[C@H](CO)NC(=O)[C@H](CC(N)=O)NC(=O)[C@@H](N)CCCNC(=N)N)C(=O)N[C@@H](CC(N)=O)C(=O)N[C@@H](Cc1c[nH]c2ccccc12)C(=O)NCC(=O)N[C@@H](CC(=O)O)C(=O)N[C@@H](CC(N)=O)C(=O)NCC(=O)N[C@@H](Cc1ccc(O)cc1)C(=O)NCC(=O)O` [HDM16A] (H-RNSWDTNWGDNGYG-OH), the Solubility test result is recorded as “YES”.

With `CC(C)C[C@H](NC(=O)[C@H](CC(=O)O)NC(=O)[C@H](CC(C)C)NC(=O)[C@H](CCC(=O)O)NC(=O)[C@H](CO)NC(=O)[C@@H]1CCCN1C(=O)[C@@H](NC(=O)[C@H](CC(N)=O)NC(=O)[C@@H](NC(=O)[C@H](CO)NC(=O)[C@@H](N)CC(N)=O)C(C)C)C(C)C)C(=O)N[C@@H](CCCNC(=N)N)C(=O)N[C@@H](CO)C(=O)N[C@@H](CC(C)C)C(=O)N[C@@H](CCCNC(=N)N)C(=O)N[C@H](C(=O)O)[C@@H](C)O` [HDM17] (H-NSVNVPSELDLRSLRT-OH), the Solubility test entry was “YES”.

Consider `CC[C@H](C)[C@H](NC(=O)[C@H](CCC(=O)O)NC(=O)[C@H](Cc1c[nH]cn1)NC(=O)[C@H](CC(N)=O)NC(=O)[C@H](C)NC(=O)[C@H](CS)NC(=O)[C@H](CC(=O)O)NC(=O)[C@H](CCCCN)NC(=O)[C@@H](NC(=O)[C@H](CC(=O)O)NC(=O)[C@@H](NC(=O)[C@H](CCC(N)=O)NC(=O)[C@@H](N)CC(=O)O)C(C)C)C(C)C)C(=O)N[C@@H](CCCCN)C(=O)N[C@@H](CCCCN)C(=O)O` [HDM19] (H-DQVDVKDCANHEIKK-OH), for which the Solubility test result was “YES”.

Turning to `CC[C@H](C)[C@H](NC(=O)[C@@H](NC(=O)[C@@H](N)CS)[C@@H](C)CC)C(=O)N[C@@H](Cc1c[nH]cn1)C(=O)N[C@@H](CCCNC(=N)N)C(=O)NCC(=O)N[C@@H](CCCCN)C(=O)N1CCC[C@H]1C(=O)N[C@@H](Cc1ccccc1)C(=O)N[C@@H](CCC(N)=O)C(=O)N[C@@H](CC(C)C)C(=O)N[C@@H](CCC(=O)O)C(=O)N[C@@H](C)C(=O)O` [HDM20] (H-CIIHRGKPFQLEA-OH; N-terminus and C-terminus assumed), the Solubility test entry is reported as “YES”.

On to `CC(C)[C@H](NC(=O)[C@H](C)NC(=O)[C@@H](N)CCC(=O)O)C(=O)N[C@@H](Cc1ccccc1)C(=O)N[C@@H](CCC(=O)O)C(=O)N[C@@H](C)C(=O)N[C@@H](CC(N)=O)C(=O)N[C@@H](CCC(N)=O)C(=O)N[C@@H](CC(N)=O)C(=O)N[C@H](C(=O)N[C@@H](CCCCN)C(=O)N[C@H](C(=O)N[C@@H](C)C(=O)N[C@@H](CCCCN)C(=O)O)[C@@H](C)O)[C@@H](C)O` [HDM22A] (H-EAVFEANQNTKTAK-OH; N-terminus and C-terminus assumed), for which the Solubility test result was “YES”.

On to `CSCC[C@H](NC(=O)[C@@H]1CCCN1C(=O)[C@H](CC(=O)O)NC(=O)[C@H](Cc1ccccc1)NC(=O)[C@@H](NC(=O)[C@@H](N)CCC(=O)O)[C@@H](C)O)C(=O)N[C@@H](CCCCN)C(=O)N[C@H](C(=O)N1CCC[C@H]1C(=O)N[C@@H](CC(=O)O)C(=O)N[C@@H](Cc1c[nH]cn1)C(=O)N[C@@H](CO)C(=O)N[C@@H](CC(=O)O)C(=O)N[C@@H](CCCCN)C(=O)O)C(C)C` [HDM29A] (H-ETFDPMKVPDHSDK-OH), for which the Solubility test entry is listed as “YES”.

Consider `CSCC[C@H](NC(=O)[C@@H]1CCCN1C(=O)[C@H](CC(=O)O)NC(=O)[C@H](Cc1ccccc1)NC(=O)[C@@H](NC(=O)[C@@H](N)CCC(=O)O)[C@@H](C)O)C(=O)N[C@@H](CCCCN)C(=O)N[C@H](C(=O)N1CCC[C@H]1C(=O)N[C@@H](CC(=O)O)C(=O)N[C@@H](Cc1c[nH]cn1)C(=O)N[C@@H](CO)C(=O)N[C@@H](CC(=O)O)C(=O)O)C(C)C` [HDM29] (H-ETFDPMKVPDHSD-OH), for which the Solubility test entry is recorded as “YES”.

For `CC[C@H](C)[C@H](NC(=O)[C@H](CC(N)=O)NC(=O)[C@H](CCCNC(=N)N)NC(=O)[C@H](CCSC)NC(=O)[C@H](CC(=O)O)NC(=O)[C@@H](N)CC(C)C)C(=O)N[C@@H](CCC(N)=O)C(=O)N[C@H](C(=O)N[C@@H](CCCNC(=N)N)C(=O)NCC(=O)N[C@@H](CC(C)C)C(=O)N[C@@H](CCCCN)C(=O)N[C@@H](CCC(N)=O)C(=O)O)C(C)C` [HDM33] (H-LDMRNIQVRGLKQ-OH; N-terminus and C-terminus assumed), the Solubility test entry is on record as “YES”.

`CC[C@H](C)[C@H](NC(=O)[C@H](CC(N)=O)NC(=O)[C@@H](N)CCCNC(=N)N)C(=O)N[C@@H](CCC(N)=O)C(=O)N[C@H](C(=O)N[C@@H](CCCNC(=N)N)C(=O)NCC(=O)N[C@@H](CC(C)C)C(=O)N[C@@H](CCCCN)C(=O)N[C@@H](CCC(N)=O)C(=O)N[C@@H](CCSC)C(=O)N[C@@H](CCCCN)C(=O)N[C@@H](CCCNC(=N)N)C(=O)N[C@H](C(=O)NCC(=O)O)C(C)C)C(C)C` [HDM34] (H-RNIQVRGLKQMKRVG-OH; N-terminus and C-terminus assumed): the Solubility test entry is “YES”.

Turning to `CSCC[C@H](NC(=O)[C@H](CCC(N)=O)NC(=O)[C@H](CCCCN)NC(=O)[C@H](CC(C)C)NC(=O)CNC(=O)[C@@H](N)CCCNC(=N)N)C(=O)N[C@@H](CCCCN)C(=O)N[C@@H](CCCNC(=N)N)C(=O)N[C@H](C(=O)NCC(=O)N[C@@H](CC(=O)O)C(=O)N[C@@H](C)C(=O)N[C@@H](CC(N)=O)C(=O)O)C(C)C` [HDM35] (H-RGLKQMKRVGDAN-OH; N-terminus and C-terminus assumed), the Solubility test result is on record as “YES”.
